The nature of data set [1]: PK of darusentan tablets, single oral dose, congestive heart failure patients (Example 3). The format is in vivo, human. As to conditions: CHF patients, single oral doses 10-300 mg. The source says: This was a multi-center, prospective, uncontrolled clinical trial. […] At least 12 patients received each dose, in addition to their normal medication for CHF.
Arithmetic means and standard deviations of Cmax, Tmax and AUC, based on individual values of these parameters calculated by standard PK methods, are presented in Table 3. As this was a single dose study, Cmin was not determined.

The conditions of data set [2]: published values, Boss et al. (2001); cited from earlier work.
Data set [3] has as its target T1, ETA (Homo sapiens, UniProt P25101).
T1 sequence (P25101 21-427): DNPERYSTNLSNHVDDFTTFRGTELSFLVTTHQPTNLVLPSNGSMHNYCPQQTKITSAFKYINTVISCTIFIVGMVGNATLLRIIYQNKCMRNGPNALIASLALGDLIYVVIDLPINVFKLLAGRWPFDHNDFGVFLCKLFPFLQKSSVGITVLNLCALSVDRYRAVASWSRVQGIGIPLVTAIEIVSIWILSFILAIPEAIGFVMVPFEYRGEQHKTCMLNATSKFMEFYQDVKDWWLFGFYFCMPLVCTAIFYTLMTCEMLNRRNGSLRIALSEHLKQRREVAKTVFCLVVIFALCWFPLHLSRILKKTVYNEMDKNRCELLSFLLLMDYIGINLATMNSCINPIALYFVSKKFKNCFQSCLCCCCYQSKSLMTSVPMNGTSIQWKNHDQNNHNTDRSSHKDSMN
As to conditions: Lip (2001); cited from earlier work.

The target in data set [4] is T1, ETA. Conditions: Riechers et al (1996); read-out: affinity for ETA (KiA); cited from earlier work.
Data set [5] deals with T1, ETA. Kind of data set: 125[I]-endothelin-1 receptor binding cold ligand competition curves in human myocardial membranes (ETA). Also noted: human myocardial membranes prepared from failing and non-failing left ventricles; from tissue; host or cells: human left ventricular myocardium (failing and non-failing), membranes. Conditions: mean of 8 assays.
Data set [6] deals with T2, ETB (Homo sapiens, UniProt P24530).
T2 sequence (P24530 27-442): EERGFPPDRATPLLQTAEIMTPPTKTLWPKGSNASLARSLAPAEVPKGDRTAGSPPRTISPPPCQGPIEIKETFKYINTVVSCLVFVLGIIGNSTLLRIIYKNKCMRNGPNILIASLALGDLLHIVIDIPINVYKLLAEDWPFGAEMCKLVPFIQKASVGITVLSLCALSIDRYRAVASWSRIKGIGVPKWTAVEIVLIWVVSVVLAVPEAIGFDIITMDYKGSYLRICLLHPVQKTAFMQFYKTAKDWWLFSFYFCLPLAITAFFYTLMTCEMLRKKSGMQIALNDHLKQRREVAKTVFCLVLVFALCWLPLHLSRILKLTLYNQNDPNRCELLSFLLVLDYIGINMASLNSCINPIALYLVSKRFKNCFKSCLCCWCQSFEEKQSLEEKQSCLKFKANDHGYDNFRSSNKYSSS
Kind of data set: 125[I]-endothelin-1 receptor binding cold ligand competition curves in human myocardial membranes (ETB). As to conditions: 10 μM Gpp(NH)p, 4-hour incubation, steady-state binding, mean of 8 assays. Also noted: human myocardial membranes prepared from failing and non-failing left ventricles; from tissue; host or cells: human left ventricular myocardium (failing and non-failing), membranes.

Data set [7] deals with T1, ETA. Kind of data set: ETA receptor affinity reported by Riechers et al (1996). The format is binding. As to conditions: calculated from Riechers et al (1996) data.
In data set [8] the target is T2, ETB. As to conditions: Riechers et al (1996); read-out: affinity for ETB (KiB); cited from earlier work.

Molecules are shown by their SMILES. Like-named read-outs stand apart in the source and are kept apart here.

Consider three compounds from patent publication US20080145433A1 (GILEAD COLORADO, INC., priority 2006, published 2008).

As to `COc1cc(OC)nc(O[C@H](C(=O)O)C(OC)(c2ccccc2)c2ccccc2)n1` [darusentan, (+)-(S)-2-(4,6-dimethoxypyrimidin-2-yloxy)-3-methoxy-3,3-diphenylpropionic acid], in data set [1], the “Pharmacokinetics: dose dependence of Cmax and AUC” value was “appeared to be linear”. The T1/2 in data set [2] was 10 to 12 h. Moreover, the ETA/ETB selectivity result at ETA [3] is given as “about 160”. The Ki was 3 nM at ETA [4]; 0.178 ± 0.055 nM on ETA [5] (10 μM Gpp(NH)p, 4-hour incubation, steady-state binding); 216 ± 85 nM on ETB [6]. Moreover, the “ETA selectivity (fold)” value at ETA [5] is 1181 ± 148 fold.
`COc1cc(OC)nc(O[C@@H](C(=O)O)C(OC)(c2ccccc2)c2ccccc2)n1` [less potent enantiomer]: the Ki at ETA [4] is 150 nM.
In the case of `COc1cc(OC)nc(OC(C(=O)O)C(OC)(c2ccccc2)c2ccccc2)n1` (racemic) [racemate, 2-(4,6-dimethoxypyrimidin-2-yloxy)-3-methoxy-3,3-diphenylpropionic acid], at ETA [7], the “ETA/ETB selectivity (KiB/KiA)” value was “about 62”. Moreover, the Ki at ETB [8] was 371 nM; at ETA [4], 6 nM.
